{"source": "paper PMC9486805", "about": "“Identification of a Phage Display-Derived Peptide Interacting with the N-Terminal Region of Factor VII Activating Protease (FSAP) Enables Characterization of Zymogen Activation” (ACS Chemical Biology, 2022)", "key": {"pro-FSAP in human plasma [1]": {"molecular_target": "T1, pro-FSAP in human plasma (Homo sapiens, UniProt Q14520)", "T1 construct": "from tissue; host or cells: human hirudin or citrate plasma from healthy donors, diluted 1:12", "T1 sequence (Q14520 24-560)": "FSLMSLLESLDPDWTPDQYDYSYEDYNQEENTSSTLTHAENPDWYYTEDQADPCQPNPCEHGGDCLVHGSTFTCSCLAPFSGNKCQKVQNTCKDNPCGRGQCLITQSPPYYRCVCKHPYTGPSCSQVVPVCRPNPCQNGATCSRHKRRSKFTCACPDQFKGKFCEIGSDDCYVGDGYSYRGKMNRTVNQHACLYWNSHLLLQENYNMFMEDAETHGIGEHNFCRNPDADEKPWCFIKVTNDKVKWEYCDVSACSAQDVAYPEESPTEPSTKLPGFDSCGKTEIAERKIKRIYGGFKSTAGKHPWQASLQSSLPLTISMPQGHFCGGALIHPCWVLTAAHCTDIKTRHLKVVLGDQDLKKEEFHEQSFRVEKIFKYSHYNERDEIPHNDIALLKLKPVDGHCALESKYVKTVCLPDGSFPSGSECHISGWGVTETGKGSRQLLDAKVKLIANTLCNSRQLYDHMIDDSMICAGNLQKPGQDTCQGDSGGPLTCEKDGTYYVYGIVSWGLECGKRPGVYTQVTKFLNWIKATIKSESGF", "details": "NNKC9/41; cited from earlier work", "source_text": "The contact pathway of blood coagulation is activated by negatively charged surfaces,[44] and we also tested whether it was involved in any way in the pro-FSAP activation process. […] The kallikrein inhibitor PKS1-527 had no effect,[43] but aprotinin, a general serine protease inhibitor, blocked pro-FSAP activation/activ ..."}, "pro-FSAP in human plasma [2]": {"molecular_target": "T1, pro-FSAP in human plasma", "test": "Activation of endogenous pro-FSAP in plasma, fluorogenic substrate turnover", "assay_type": "biochemical", "procedure": "Human citrate plasma (0.38% w/v) or hirudin plasma (25 μg/mL Lepirudin) was obtained from five healthy donors. Plasma was diluted at 1:12 and mixed with various test substances that potentially activate or inhibit pro-FSAP. Ac–Ala–Lys–Nle–Arg–AMC (amino–methyl–coumarin) was used as a sensitive and specific substrate for FSAP.[35] Hydrolysis of the fluorogenic substrates was measured using a Synergy HI plate reader with excitation at 320 nm and emission at 460 nm at 37 °C for 60 min. The maximal velocity was calculated from the linear part of the progress curve. In limited experiments, the second-generation fluorogenic FSAP substrate (Ac–Pro–DTyr–Lys–Arg–AMC)[34] was used. Pro-uPA activation, formation of FSAP−α2-antiplasmin, and western blotting with anti-FSAP antibodies were also used to monitor pro-FSAP activation."}, "[3]": {"molecular_target": "T2, pro-FSAP purified from human plasma (Homo sapiens, UniProt Q14520)", "T2 construct": "Pro-FSAP was isolated from human plasma as described before; from tissue; host or cells: human plasma", "T2 sequence (Q14520 24-560)": "as above", "test": "Pro-FSAP activation assay, purified pro-FSAP, chromogenic substrate S-2288", "assay_type": "biochemical", "procedure": "Figure 1 Isolation of pro-FSAP binding peptides and their activity: (A) strategy to isolate high-affinity phages from the NNKC9 and NNK11 libraries that bind to pro-FSAP. To select for strong binders, an excess of free pro-FSAP protein was used for competitive elution of low-affinity binders. High-affinity binders retained on the beads were analyzed further. The sequences of major positive clones identified through an ELISA-based binding assay from the NNKC9 and NNK11 libraries are shown. (B) NNK11/189 and scrambled controls (0–50 μM) and histones (0–50 μg/mL) were added to purified pro-FSAP (1.0 μg/mL) and the turnover of the chromogenic substrate S-2288 (200 μM) was measured. (C) NNKC9/41 was compared to a peptide that was synthetically monocyclized (Cys–Cys cyclic), a peptide with Ser residues instead of Cys at both ends (Ser–Ser linear), a peptide with Ser residues at the end cyclized head to tail (Ser–Ser cyclic), and a scrambled peptide in a pro-FSAP activation assay. (D) Hirudin plasma (1:12 dilution) was incubated with histones (25 μg/mL), NNKC9/41, or Ser–Ser linear control (each, 25 μM), the fluorogenic substrate turnover (Ac–Ala–Lys–Nle–Arg–AMC) was monitored in duplicate wells, and results from a single well are shown. In panels (B) and (C), results are shown as mean + range (duplicate wells). Results were replicated with five different batches of NNKC9/41 (panels (B) and (C)).\nPro-FSAP was isolated from human plasma as described before.[14] The content of the zymogen form varied from 50% to 90% due to autoactivation during the purification process. Histones, isolated from the calf thymus, were obtained from Sigma-Aldrich (Oslo, Norway). FSAP activity assays were performed as described previously.[51] In brief, microtiter wells were blocked with TBS (25 mM Tris–HCl, pH 7.5, and 150 mM NaCl) containing 3% (w/v) BSA for 1 h and washed with TBS-T. The standard assay consisted of TBS-T with 0.3% (w/v) BSA and CaCl2 (2 mM) 1 μg/mL (15 nM) plasma purified pro-FSAP and 250 μM chromogenic substrate S-2288 (D-Ile-L-Pro-L-Arg-p-nitroaniline dihydrochloride) (Haemochrome Diagnostica, Essen, Germany) and was followed at 37 °C at 405 nm in a microplate reader Synergy HI plate reader (BioTek Instruments, Winooski). In some experiments, a fluorescent substrate of FSAP[35] was used."}, "purified pro-FSAP": {"system": "purified pro-FSAP", "details": "heparin ref 13, 14; nucleic acids ref 15, 16; dextran sulfate ref 13; cited from earlier work", "source_text": "This leads to cleavag ..."}, "EGF3 domain of FSAP": {"system": "EGF3 domain of FSAP", "details": "cited from earlier work", "source_text": "To identify the domain of FSAP responsible for binding to NNKC9/41, we expressed various domain deletion mutants of pro-FSAP as His-tagged proteins in E. coli as described before.[36] The N-terminus of pro- FSAP (heavy chain) consists of the intrinsically disordered N-terminal region (NTR), three EGF domains, and a kringle domain, whereas the C-terminal-light chain contains the serine protease domain (SPD) (Figure 2C). […] The recombinant proteins (Figure 2D) were captured on polyclonal FSAP an ..."}, "[4]": {"details": "hirudin plasma, Ac–Pro–DTyr–Lys–Arg–AMC (Fig S3)"}}, "note": "Bridge positions count the residues as written; N and C are the ends. Ends that are not written are not given here."}
{"compound": "Cl.NCC1CCC(C(=O)N[C@@H](Cc2ccccc2)C(=O)Nc2ccc(CC(=O)O)cc2)CC1", "note": "(stereo partly shown) [PKS1-527]", "values": [{"measurement": "effect of kallikrein inhibitor", "setting": "pro-FSAP in human plasma [1]", "result": "had no effect"}]}
{"compound": "CRGAMWMYKRC (disulfide 1-11 (inferred)) [cyclic dimer, antiparallel cyclic dimer of NNKC9/41 through terminal Cys groups]", "values": [{"measurement": "presence in HPLC fractions active in pro-FSAP activation", "setting": "pro-FSAP in human plasma [2]; RP-HPLC fractions of NNKC9/41 tested in hirudin plasma, LC–MS (Fig S1)", "result": "found in all of the active fractions"}, {"measurement": "activity at higher concentrations", "setting": "pro-FSAP in human plasma [2]; [4]", "result": "pronounced decrease in activity at higher concentrations"}, {"measurement": "maximal activity vs NNKC9/41", "setting": "pro-FSAP in human plasma [2]; [4]", "result": "slightly lower"}]}
{"compound": "CRGAMWMYKRC (not fully specified (N-terminus); also: oxidation gives mixture of Cys1-Cys11 monocycle and disulfide-linked antiparallel dimers) [NNKC9/41]", "values": [{"measurement": "EC50", "setting": "[3]; purified pro-FSAP activation, S-2288, linear synthetic peptide stored under oxidative conditions, five batches", "result": "8 to 15", "unit": "µM"}]}
{"compound": "IDCLMQNAGSA [NNK11/189]", "values": [{"measurement": "effect on pro-FSAP activation", "setting": "[3]; purified pro-FSAP 1.0 μg/mL, peptides 0–50 μM, histones 0–50 μg/mL, S-2288 (200 μM in legend b10, 250 μM in method b60), 37 °C, 405 nm, duplicate wells", "result": "did not have any effect on pro-FSAP activation"}]}
{"compound": "aprotinin [reference compound]", "values": [{"measurement": "effect of inhibitor on pro-FSAP activation by the peptide", "setting": "pro-FSAP in human plasma [2]; hirudin plasma 1:12, NNKC9/41 25 μM, CTI 80 μg/mL, aprotinin 100 μg/mL, MA-570 20 μg/mL, read-outs of Fig 4D–F (MA-FSAP-570 only Fig 4D,E)", "result": "blocked pro-FSAP activation/activity"}]}
{"compound": "dextran sulfate", "values": [{"measurement": "activation of purified pro-FSAP", "setting": "purified pro-FSAP", "result": "activate purified pro-FSAP"}]}
{"compound": "heparin", "values": [{"measurement": "activation of purified pro-FSAP", "setting": "purified pro-FSAP", "result": "activate purified pro-FSAP"}, {"measurement": "binding to the EGF3 domain", "setting": "EGF3 domain of FSAP", "result": "binds to the EGF3 domain"}]}
